According to patent US20220195379A1, “METHOD OF TESTTING INHIBITORY EFFECT OF CARBON DIOXIDE ON SPOILAGE CAUSING ABILITY OF SHEWANELLA PUTREFACIENS” (Shanghai Ocean University, priority 2022, published 2022):

System: Shewanella putrefaciens
Experiment: Inhibitory effect of CO2 on growth and spoilage causing ability, inoculated fillets in modified atmosphere packaging
Conditions: stored in the presence of CO2, versus control group
Procedure: Pre-frozen Shewanella putrefaciens (stored at −80° C. or less) was thawed at 30±2° C., inoculated to 5-10 mL of TSB, and cultured under shaking for 12 h to obtain a primary culture solution.
The primary culture solution was inoculated into another TSB liquid medium at an inoculation amount of 1% by weight, which was cultured under shaking for 6 h to obtain a bacterial suspension with a concentration of 10^7 CFU/mL.
A large yellow croaker with a weight of 1000±50 g was processed, and cut into a plurality of 100-g slices, which were washed with 0-4° C. water, and dried to prepare a plurality of samples. The large yellow croaker was oxygenated in a foam box during the transportation, and processed by bloodletting, evisceration, and head removal.
The samples were immersed into a 75% ethanol solution for 30 s, washed with sterile distilled water 3 times, and subjected to ultraviolet sterilization for 20 min to obtain a plurality of sterilized samples, where a mass ratio of the ethanol solution to the samples was 3:1. The bacterial suspension was diluted to a concentration of 10^4 CFU/mL, and inoculated to the sterilized samples to obtain a plurality inoculated samples, where the diluted bacterial suspension was 10% by weight of each sterilized sample such that a bacterial concentration of each sterilized sample was lower than or equal to 10^5 CFU/mL. […]

O=C=O [CO2, carbon dioxide]
Growth and reproduction rate of the Shewanella putrefaciens: significantly lower than that of the control group
